One test concerns ZM75.7 (Src). The test is described as follows: MTS and ATP cell viability/metabolic activity assays, suppression of tet-induced reduction. It counts as cell-based, human. To be noted: 3 days after tet/compound addition. The text has this:
To proof the concept of the assay platform according to the invention in a quantitative manner with a highly parallel readout, the following cell viability / metabolic activity assays from Promega according to the manufacturer's protocols: "CellTiter 96 AQueous One Solution Cell Proliferation Assay (MTS)", CellTiter-Blue™ Cell Viability Assay (CTB), and the ATP-status assay "CellTiter-Glo Luminescent Cell Viability Assay" (ATP) were used to obtain quantitative values reflecting (aspects of) the phenotype changes.
The cells were seeded into white-walled/ clear bottom 96-well plates ["MICROTEST" by Falcon, cat.no. […] Measurements were taken 1,2 and 3 days later using the Wallac Victor^2™ multilabel plate reader (Perkin Elmer). Absorbance was measured at 490nm (MTS). Luminescence mode was used for the ATP assay. For CTB fluorescence excitation wavelength was 550nm (filter: 550(20)nm), emission wavelength was 590 nm (filter: 590(20)nm). […]
Three more parameters reflecting the effects of compounds on cell viability/metabolic activity in these assays are indicated in Tab.3 and Tab.4: Toxicity reflects the nonspecific (i.e. irrespective of tet-induced Src/ Src mutant expression) effects of a compound on the viability/ metabolic activity of the cells. It is calculated as toxicity=1-mean(-tet, compound)/mean(-tet,(DMSO)). […]

The test system of test [1] is Src-YF expressing ZM77 cell lines. The test is described as follows: Suppression of tet-induced phenotype changes, evaluated by eye/microscope, normal cell culture plates. It counts as cell-based, human. As to conditions: adherent, serum-containing medium. As for the experimental part:
Phenotype changes -tet → +tet were evaluated in 24-well plates (Nunc; cat.no. 143982) under the following several different growth conditions to identify the strongest possible response (Δpt(-tet→+tet)max) 1. full (10% serum containing) growth medium a) without any growth factor supplement (-), b) with epidermal growth factor (EGF; 100ng/ml) (cat.no. 115, Research Diagnostics Inc. (RDI), Flanders, NJ, USA) or c) platelet derived growth factor type BB (PDGF-BB; 30ng/ml) (cat.no. 114b, RDI) or d) hepatocyte growth factor (HGF; 20ng/ml) (RDI, cat.no.300-010), or 2. serum-free medium a) - or b) +EGF or c) +PDGF or d) +HGF. In all cases, cells were first seeded into standard 24-well or 96-well plates (Nunc) in full growth medium. The cell number seeded per well was also varied to identify the most suitable cell densities producing Δpt(-tet→+tet)max. […]
To that end, the test compounds PP1-Chr., PP2 (cat.no. 529573, Calbiochem) and SU6656 (cat.no. 572635, Calbiochem) (see Fig.9p for chemical structures) were individually added to the cells together with tet, and the development of the phenotype changes in the presence of these compounds was monitored subsequently in direct comparison with cells that received no compound or only vehicle (0.2% DMSO) together with tet induction. […]

The record followed here is patent EP1541694A1, “Methods of identifying, selecting and/or characterizing compounds which modulate the activity of a Src family kinase” (Sirenade Pharmaceuticals AG, priority 2003, dated 2005).

Each structure is given as a SMILES string.

For the compound `CC(C)(C)n1nc(-c2ccc(Cl)cc2)c2c(N)ncnc21` [PP2], the “suppression effects on ZM75.7” value with ZM75.7 (Src) is reported as “detected”. The “suppression of tet-induced phenotype changes” value in test [1] is listed as “partially suppressed”.
